Experimental data from patent publication US8338482B2, “Modulating notch1 signaling pathway for treating neuroendocrine tumors” (Wisconsin Alumni Research Foundation, priority 2007, dated 2012).

How the values were obtained:
[1] = tested on: Hedgehog pathway; details: murine models; cited from earlier work
[2] = tested on: Hedgehog signaling; details: 50 mg/kg/d i.p.
Description: Sixty nude mice undergo intrasplenic injection of NE tumor cells as described above. […] Treatment continues for 8 weeks.
2) Interval assessment of tumor burden. All animals undergo microCT scanning every week for 8 weeks as described above. Blood is sampled weekly for measurement of serotonin or calcitonin levels.
3) Measurement of Hedgehog signaling inhibition. […] The liver lesions from animals sacrificed at 2 weeks intervals (n=3 per group) are microdissected from normal liver and total RNA extracted. Tumors in cycloamine treated mice are analyzed for downregulation of Gli1 expression by real-time PCR when compared to control animals.

[3] = tested on: H727 human lung carcinoid cancer cells; assay: MTT cell proliferation assay, pulmonary carcinoid cells; type: cell-based; details: up to 6 days
Excerpt: (§1) Cell Culture BON human GI carcinoid cancer cells, kindly provided by Drs. B. Mark Evers and Courtney M. Townsend, Jr. (University of Texas Medical Branch, Galveston, Tex., USA), and H727 human lung carcinoid cancer cells (American Type Tissue Collection, Manassas, Va., USA) were maintained as previously described (Sippel, R S et al., Raf-1 Activation Suppresses neuroendocrine marker and hormone levels in human gastrointestinal carcinoid cells. Am J Physiol Gastrointest Liver Physiol. 2003 August; 285(2):G245-54, Van Gompel J J et al., ZM336372, A Raf-1 Activator, Suppresses Growth and Neuroendocrine Hormone Levels in Carcinoid Tumor Cells. Mol Cancer Ther. 2005 June; 4(6):910-7)
Cell Proliferation Assay Carcinoid cancer cell proliferation was measured by the MTT (thiazolyl blue tetrazolium bromide; Sigma-Aldrich, St. Louis, Mo., USA) rapid calorimetric assay as previously described (Van Gompel J J et al., ZM336372, A Raf-1 Activator, Suppresses Growth and Neuroendocrine Hormone Levels in Carcinoid Tumor Cells. Mol Cancer Ther. 2005 June; 4(6):910-7). Briefly, cells were seeded in quadruplicate on 24-well plates and incubated for 24 hours to allow cell attachment. The cells were then treated with SBHA (Sigma-Aldrich) in concentrations of 0 to 50 μM and incubated for up to 6 days. The MTT assay was performed by replacing the standard medium with 250 μL of serum-free medium containing MTT (0.5 mg/mL) and incubated at 37° C. for 3 hours. […] The plates were then measured at 540 nm using a spectrophotometer (μQuant; Bio-Tek Instruments, Winooski, Vt., USA). […]
(§2) Cell Proliferation Assay Carcinoid tumor cell proliferation was measured by the MTT (methylthiazolyldiphenyl-tetrazolium bromide; Sigma-Aldrich, St. Louis, Mo.) rapid colorimetric assay as previously described (Van Gompel J J et al., ZM336372, A Raf-1 Activator, Suppresses Growth and Neuroendocrine Hormone Levels in Carcinoid Tumor Cells. Mol Cancer Ther 2005; 4:910-917). […] The plates were then measured at 540 nm using a spectrophotometer (μQuant; Bio-Tek Instruments, Winooski, Vt.).

[4] = tested on: BON human GI carcinoid cancer cells; assay: MTT cell proliferation assay, GI carcinoid cells; type: cell-based
Excerpt: as §1
Cell Proliferation Assay Carcinoid cancer cell proliferation was measured by the MTT (thiazolyl blue tetrazolium bromide; Sigma-Aldrich, St. Louis, Mo., USA) rapid calorimetric assay as previously described (Van Gompel J J et al., ZM336372, A Raf-1 Activator, Suppresses Growth and Neuroendocrine Hormone Levels in Carcinoid Tumor Cells. Mol Cancer Ther. 2005 June; 4(6):910-7). Briefly, cells were seeded in quadruplicate on 24-well plates and incubated for 24 hours to allow cell attachment. The cells were then treated with SBHA (Sigma-Aldrich) in concentrations of 0 to 50 μM and incubated for up to 6 days. The MTT assay was performed by replacing the standard medium with 250 μL of serum-free medium containing MTT (0.5 mg/mL) and incubated at 37° C. for 3 hours. After incubation, 750 μL of dimethyl sulfoxide (Sigma-Aldrich) was added to each well and mixed thoroughly. The plates were then measured at 540 nm using a spectrophotometer (μQuant; Bio-Tek Instruments, Winooski, Vt., USA).
Cell Culture BON human gastrointestinal (GI) carcinoid tumor cells, kindly provided by Drs. B. Mark Evers and Courtney M. Townsend, Jr. […]
as §2

[5] = tested on: Human MTC TT cells; assay: MTT cell viability assay, medullary thyroid cancer cells; type: cell-based; details: concentrations up to 25 μM
Description: (§3) Human MTC TT cells were treated with SBHA in concentrations up to 25 μM and analyzed by Western blotting for evidence of Notch1 pathway activation and changes in neuroendocrine markers. MTT assay was used to measure cell viability. Finally mechanism of growth inhibition was analyzed by Western blotting.

[6] = tested on: H727 human lung carcinoid cancer cells; assay: Western blot analysis of pulmonary carcinoid cells; type: cell-based; details: SBHA, 48 hours
[7] = tested on: BON human GI carcinoid cancer cells; assay: Western blot analysis of GI carcinoid cells; type: cell-based; details: 48 hours
Description: Cell Culture BON human GI carcinoid cancer cells, kindly provided by Drs. B. Mark Evers and Courtney M. Townsend, Jr.
Total protein concentrations were quantified with a bicinchoninic acid assay kit (Pierce Biotechnology, Rockford, Ill., USA). Denatured cellular extracts were resolved by SDS-PAGE, transferred to nitrocellulose membranes (Schleicher and Schuell, Keene, N.H., USA), blocked in milk, and incubated with appropriate antibodies. The antibody dilutions were: 1:1,000 for Notch1 (Santa Cruz Biotechnology, Santa Cruz, Calif., USA), mammalian achaete-scute homolog 1 (ASCL1; BD Biosciences, San Diego, Calif., USA), chromogranin A (Zymed Laboratories, San Francisco, Calif., USA), and cyclin D1 (Cell Signaling Technology, Danvers, Mass., USA), 1:2,000 for p21 (Cell Signaling Technology) and p27 (Santa Cruz Biotechnology), and 1:10,000 for glyceraldehyde-3-phosphate dehydrogenase (G3PDH; Trevigen, Gaithersburg, Md., USA). Horseradish peroxidase conjugated goat anti-rabbit or goat anti-mouse secondary antibodies (Pierce Biotechnology) were used depending on the source of the primary antibody. For visualization of the protein signal, Immunstar (Bio-Rad Laboratories, Hercules, Calif., USA) or SuperSignal West Femto (Pierce Biotechnology) kits were used per the manufacturer's instructions.
Cell Culture BON human gastrointestinal (GI) carcinoid tumor cells, kindly provided by Drs. B. Mark Evers and Courtney M. Townsend, Jr.
Total protein concentrations were quantified with a bicinchoninic acid assay kit (Pierce Biotechnology, Rockford, Ill.). Denatured cellular extracts were resolved by SDS-PAGE, transferred onto nitrocellulose membranes (Schleicher and Schuell, Keene, N H), blocked in milk, and incubated with appropriate antibodies. The antibody dilutions were: 1:1,000 for Notch1 (Santa Cruz Biotechnology, Santa Cruz, Calif.), mammalian achaete-scute homolog 1 (ASCL1; BD Biosciences, San Diego, Calif.), chromogranin A (Zymed Laboratories, San Francisco, Calif.), and cyclin D1 (Cell Signaling Technology, Danvers, Mass.), 1:2,000 for p21 (Cell Signaling Technology) and p27 (Santa Cruz Biotechnology), and 1:10,000 for glyceraldehyde-3-phosphate dehydrogenase (G3PDH; Trevigen, Gaithersburg, Md.). Horseradish peroxidase conjugated goat anti-rabbit or goat anti-mouse secondary antibodies (Pierce Biotechnology) were used depending on the source of the primary antibody. For visualization of the protein signal, Immunstar (Bio-Rad Laboratories, Hercules, Calif.) or SuperSignal West Femto (Pierce Biotechnology) kits were used per the manufacturer's instructions.

[8] = tested on: Human MTC TT cells; assay: Western blotting of medullary thyroid cancer cells; type: cell-based; details: concentrations up to 25 μM
Description: as §3

| Structure (SMILES) | Hedgehog signaling [1] | tumors dependent on Hedgehog signaling [1] | Hedgehog signaling within the NE tumor cells [2] | cell growth ([3]; SBHA 0 to 50 μM) | concentrations that produced growth inhibition [3] | cell proliferation ([4]; SBHA 0 to 50 μM, up to 6 days) | concentration giving significant growth inhibition ([4]; after 4 days of exposure) | cell viability [5] | levels of cyclin D1 [6] | levels of cyclin-dependent kinase inhibitors p21 and p27 [6] | concentration resulting in induction of full-length Notch1 and Notch1 intracellular domain (NICD) ([7]; concentrations as low as) | levels of cyclin D1 ([7]; SBHA) | levels of cyclin-dependent kinase inhibitors p21 and p27 ([7]; SBHA) | ASCL1 [8] | active form of Notch1 [8] | chromogranin A [8] | cleaved poly ADP-ribose polymerase (PARP) and caspase-3 [8] |
| --- | --- | --- | --- | --- | --- | --- | --- | --- | --- | --- | --- | --- | --- | --- | --- | --- | --- |
| CC1=C2C[C@H]3[C@@H](CC=C4C[C@@H](O)CC[C@@]43C)[C@@H]2CC[C@]12O[C@@H]1C[C@H](C)CN[C@H]1[C@H]2C [Cyclopamine] | completely blocked | caused regression | confirmed to inhibit |  |  |  |  |  |  |  |  |  |  |  |  |  |  |
| O=C(CCCCCCC(=O)NO)NO [SBHA, suberic bishydroxamic acid] |  |  |  | dose-dependent growth suppression | 20 to 50 µM | profound dose-dependent inhibition | 5 µM | dose-dependant decrease | decreased levels | increased levels | 5 µM | decreased levels | increased levels | concomitant decrease | dose-dependent induction | decrease | increase in protein levels |
